Biological target: T1, Toll-like receptor 9 (Homo sapiens, UniProt Q9NR96)
T1 sequence (Q9NR96 whole entry): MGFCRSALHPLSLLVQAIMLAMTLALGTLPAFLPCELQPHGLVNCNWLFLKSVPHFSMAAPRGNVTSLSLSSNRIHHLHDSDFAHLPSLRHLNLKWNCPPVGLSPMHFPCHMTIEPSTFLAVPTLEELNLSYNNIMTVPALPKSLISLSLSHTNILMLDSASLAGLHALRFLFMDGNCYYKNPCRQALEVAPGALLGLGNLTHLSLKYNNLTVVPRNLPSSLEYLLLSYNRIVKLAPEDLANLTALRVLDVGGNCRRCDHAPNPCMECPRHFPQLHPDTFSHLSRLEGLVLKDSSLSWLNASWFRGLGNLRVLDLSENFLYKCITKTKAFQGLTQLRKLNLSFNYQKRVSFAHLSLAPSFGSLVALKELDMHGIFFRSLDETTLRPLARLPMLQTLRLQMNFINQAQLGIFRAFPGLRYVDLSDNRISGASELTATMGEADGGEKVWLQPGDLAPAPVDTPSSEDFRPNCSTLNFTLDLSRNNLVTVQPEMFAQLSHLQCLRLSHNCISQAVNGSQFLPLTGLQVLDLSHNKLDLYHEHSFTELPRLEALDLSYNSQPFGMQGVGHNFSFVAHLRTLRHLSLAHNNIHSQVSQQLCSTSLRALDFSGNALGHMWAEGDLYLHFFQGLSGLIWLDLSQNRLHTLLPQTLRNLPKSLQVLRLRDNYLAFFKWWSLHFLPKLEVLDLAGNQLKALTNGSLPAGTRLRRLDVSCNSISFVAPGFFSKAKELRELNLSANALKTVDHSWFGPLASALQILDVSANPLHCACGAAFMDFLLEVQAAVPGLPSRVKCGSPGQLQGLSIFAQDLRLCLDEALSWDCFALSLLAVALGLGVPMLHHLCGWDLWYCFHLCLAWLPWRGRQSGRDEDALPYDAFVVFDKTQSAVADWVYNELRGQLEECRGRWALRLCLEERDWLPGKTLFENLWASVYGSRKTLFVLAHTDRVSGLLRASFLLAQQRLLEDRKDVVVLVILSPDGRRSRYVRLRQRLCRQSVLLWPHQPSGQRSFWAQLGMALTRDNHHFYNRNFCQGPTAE
Test: Inhibition of human TLR9 expressed in HEK-Blue cells assessed as inhibition of ODN2006-induced NF-kappaB and AP-1 activation measured after 20 hrs by quanti-blue based SEAP reporter gene assay
Format: cell-based, HEK-Blue hTLR9

IC50 [nM] | Structure (SMILES)
54 | C[C@@H]1CN(c2ccc(C#N)c3ncccc23)C[C@@H]2CN(c3cccc4c3CCNC4)CCN21
70 | [2H]c1ccc2c(N3CC4CN(c5ncc(N6CCOC[C@H](N)C6)cc5C)CCN4[C@@H](C)C3)ccc(C#N)c2n1 (some centres not stated)
